Test results: paper PMC6146777, “Biocompatible glyconanomaterials based on HPMA-copolymer for specific targeting of galectin-3” (Journal of Nanobiotechnology, 2018)

Target: T1, Recombinant human His6-tagged galectin-3 (Gal-3) (Homo sapiens, UniProt P17931)
T1 construct: gene LGALS3; His6-tagged Gal-3 (tag kept), expressed in E. coli Rosetta 2 (DE3) pLysS, 28,023 Da calculated, monomer in solution
Test: competitive ELISA, Gal-3 binding to immobilized asialofetuin
Details: 6.5 µM Gal-3, EPBS buffer pH 7.5, 2 mM EDTA, 2 h; competitive with asialofetuin

T1 sequence (P17931 2-250): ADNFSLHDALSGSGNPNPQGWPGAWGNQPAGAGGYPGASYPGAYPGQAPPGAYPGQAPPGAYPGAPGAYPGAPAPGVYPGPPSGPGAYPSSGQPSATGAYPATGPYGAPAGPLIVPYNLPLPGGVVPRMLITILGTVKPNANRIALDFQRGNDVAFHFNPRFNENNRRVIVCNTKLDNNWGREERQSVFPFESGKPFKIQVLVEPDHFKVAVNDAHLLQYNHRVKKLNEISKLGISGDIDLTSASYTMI

| IC50 | Compound |
| --- | --- |
| 53 ± 16 µM | CC(=O)N[C@H]1C(O)O[C@H](CO)[C@@H](O[C@@H]2O[C@H](CO)[C@H](O)[C@H](O)[C@H]2O)[C@@H]1O (some centres unmarked) [LacNAc] |
| 64 ± 20 µM | CC(=O)N[C@H]1[C@H](O[C@H]2[C@H](O)[C@@H](NC(C)=O)C(O)O[C@@H]2CO)O[C@H](CO)[C@H](O)[C@@H]1O (stereo partly drawn) [compound 5, 2-acetamido-2-deoxy-β-D-galactopyranosyl-(1 → 4)-2-acetamido-2-deoxy-D-glucopyranose] |
